This is an account of results in PubChem BioAssay AID248 (DTP/NCI, 2004).

Toxic doses and inconclusive results are not listed.

In this assay the test system is L1210 leukemia ip in BDF1 mice, survival T/C. The assay can be described thus: NCI In Vivo Anticancer Drug Screen. Data for tumor model L1210 Leukemia (intraperitoneal) in B6D2F1 (BDF1) mice. Particulars: endpoint: mean survival time, higher = longer survival. In a few lines: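 Tumor was transplanted into mice, which were then dosed with test compound or vehicle alone. Survival was recorded for each group, and the treated figure was expressed relative to the control figure.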

Setting [1] is: dose: 100.0 mg/kg/injection, schedule: Q04DX003 (ip), vehicle: saline with Tween-80.
Setting [2] is: dose: 200.0 mg/kg/injection, schedule: Q04DX003 (ip), vehicle: saline with Tween-80.
The mark [3] stands for this setting: dose: 400.0 mg/kg/injection, schedule: Q04DX003 (ip), vehicle: saline with Tween-80.
The mark [4] stands for this setting: dose: 50.0 mg/kg/injection, schedule: Q04DX002 (ip), vehicle: Klucel (hydroxypropylcellulose) (HPC).
Setting [5] is: dose: 100.0 mg/kg/injection, schedule: Q01DX009 (ip), vehicle: Klucel (hydroxypropylcellulose) (HPC).
Where [6] appears, read: dose: 100.0 mg/kg/injection, schedule: Q04DX002 (ip), vehicle: Klucel (hydroxypropylcellulose) (HPC).
[7] abbreviates: dose: 200.0 mg/kg/injection, schedule: Q01DX009 (ip), vehicle: Klucel (hydroxypropylcellulose) (HPC).
[8] abbreviates: dose: 75.0 mg/kg/injection, schedule: Q01DX001 (ip), vehicle: saline.
[9] abbreviates: dose: 150.0 mg/kg/injection, schedule: Q01DX001 (ip), vehicle: saline.
[10] abbreviates: dose: 300.0 mg/kg/injection, schedule: Q01DX001 (ip), vehicle: saline.
[11] abbreviates: dose: 400.0 mg/kg/injection, schedule: Q04DX002 (ip), vehicle: saline with Tween-80.
Where [12] appears, read: dose: 100.0 mg/kg/injection, schedule: Q04DX003 (ip), vehicle: Klucel (hydroxypropylcellulose) (HPC).
[13] abbreviates: dose: 200.0 mg/kg/injection, schedule: Q04DX003 (ip), vehicle: Klucel (hydroxypropylcellulose) (HPC).
Where [14] appears, read: dose: 400.0 mg/kg/injection, schedule: Q01DX009 (ip), vehicle: Klucel (hydroxypropylcellulose) (HPC).
The mark [15] stands for this setting: dose: 400.0 mg/kg/injection, schedule: Q04DX003 (ip), vehicle: Klucel (hydroxypropylcellulose) (HPC).

On to `O=C(c1ccccc1)c1ccc(Oc2ccccc2)cc1`, for which the T/C by setting is: (dose: 100.0 mg/kg/injection, schedule: Q04DX003 (ip), vehicle: gum acacia) 91 % of control; (dose: 200.0 mg/kg/injection, schedule: Q04DX003 (ip), vehicle: gum acacia) 97 % of control; (dose: 400.0 mg/kg/injection, schedule: Q04DX003 (ip), vehicle: gum acacia) 91 % of control.
In the case of `CCN(CC)CC(OC)C(COC)OC(=O)C(c1ccccc1)c1ccccc1` (configuration not stated), the T/C is 105 % of control (dose: 13.0 mg/kg/injection, schedule: Q01DX Z (ip), vehicle: saline); 98 % of control (dose: 20.0 mg/kg/injection, schedule: Q01DX Z (ip), vehicle: saline); 102 % of control (dose: 30.0 mg/kg/injection, schedule: Q01DX Z (ip), vehicle: saline).
`CC(C)CS.[Pb]`: the T/C by setting is: (dose: 100.0 mg/kg/injection, schedule: Q04DX002 (ip), vehicle: gum acacia) 93 % of control; (dose: 200.0 mg/kg/injection, schedule: Q04DX002 (ip), vehicle: gum acacia) 93 % of control; (dose: 400.0 mg/kg/injection, schedule: Q04DX002 (ip), vehicle: gum acacia) 89 % of control.
As to `CCCCCCCC(=O)Nc1ccccc1CC`, the T/C is 93 % of control under setting [1], 95 % of control under setting [2] and 86 % of control under setting [3].
With `c1c[nH]c(C2Nc3ccccc3S2)c1` (configuration not stated), the T/C was 93 % of control (dose: 100.0 mg/kg/injection, schedule: Q01DX001 (ip), vehicle: saline) and 95 % of control (dose: 200.0 mg/kg/injection, schedule: Q01DX001 (ip), vehicle: saline).
In the case of `CC(CC(CCC(CC(C)CC(C)(C)C)N(C)C)N(C)C)CC(C)(C)C` (configuration not stated), the T/C is 90 % of control (dose: 50.0 mg/kg/injection, schedule: Q01DX009 (ip), vehicle: Klucel (hydroxypropylcellulose) (HPC)); 93 % of control under setting [4]; 96 % of control under setting [5]; 87 % of control under setting [6]; 101 % of control under setting [7].
Take `C=C(C)C1(CCC)C(=O)NC(=S)NC1=O`: the T/C is, setting by setting: under setting [8], 107 % of control; under setting [9], 111 % of control; under setting [10], 116 % of control.
Turning to `O=C(CNC(=O)OCc1ccccc1)NC(Cc1c[nH]c2ccccc12)C(=O)OCc1ccccc1` (configuration not stated), the T/C was 96 % of control under setting [1], 100 % of control under setting [2] and 95 % of control under setting [3].
On to `CC1(C)CC(N=Cc2ccccc2O)CC(C)(C)N1O.CC1(C)CC(N=Cc2ccccc2O)CC(C)(C)N1O.[Zn]`, for which the T/C was 91 % of control (dose: 25.0 mg/kg/injection, schedule: Q04DX002 (ip), vehicle: Klucel (hydroxypropylcellulose) (HPC)); 91 % of control under setting [4]; 94 % of control under setting [6].
Consider `O=C(/C=C/c1ccccc1)N1CC2CCC(CC2)C1`, for which the T/C is 95 % of control under setting [1] and 93 % of control under setting [2].
In the case of `CC(=O)Nc1ccc(N(CCO)CCO)cc1`, the T/C by setting is: (dose: 25.6 mg/kg/injection, schedule: Q04DX002 (ip), vehicle: saline with Tween-80) 88 % of control; (dose: 64.0 mg/kg/injection, schedule: Q04DX002 (ip), vehicle: saline with Tween-80) 88 % of control; (dose: 160.0 mg/kg/injection, schedule: Q04DX002 (ip), vehicle: saline with Tween-80) 88 % of control; under setting [11], 92 % of control.
As to `CN1Cc2c(ccc3c2OCO3)[C@@H]2[C@H](O)Cc3cc4c(cc3[C@@H]21)OCO4`, the T/C reads like this: (dose: 50.0 mg/kg/injection, schedule: Q01DX Z (ip), vehicle: carboxymethylcellulose (CMC)) 102 % of control; (dose: 75.0 mg/kg/injection, schedule: Q01DX Z (ip), vehicle: carboxymethylcellulose (CMC)) 108 % of control; (dose: 100.0 mg/kg/injection, schedule: Q01DX001 (ip), vehicle: carboxymethylcellulose (CMC)) 102 % of control; (dose: 100.0 mg/kg/injection, schedule: Q01DX Z (ip), vehicle: carboxymethylcellulose (CMC)) 102 % of control; under setting [1], 101 % of control; (dose: 180.0 mg/kg/injection, schedule: Q04DX003 (ip), vehicle: Klucel (hydroxypropylcellulose) (HPC)) 111 % of control. The T/C runs as follows: (dose: 200.0 mg/kg/injection, schedule: Q01DX001 (ip), vehicle: carboxymethylcellulose (CMC)) 113 % of control; under setting [2], 101 % of control; (dose: 266.0 mg/kg/injection, schedule: Q04DX003 (ip), vehicle: Klucel (hydroxypropylcellulose) (HPC)) 98 % of control; (dose: 266.0 mg/kg/injection, schedule: Q04DX003 (ip), vehicle: saline) 105 % of control; (dose: 300.0 mg/kg/injection, schedule: Q01DX Z (ip), vehicle: carboxymethylcellulose (CMC)) 98 % of control; (dose: 400.0 mg/kg/injection, schedule: Q01DX001 (ip), vehicle: carboxymethylcellulose (CMC)) 102 % of control. Also, the T/C is 165 % of control under setting [3]; 111 % of control (dose: 400.0 mg/kg/injection, schedule: Q04DX003 (ip), vehicle: saline); 157 % of control (dose: 600.0 mg/kg/injection, schedule: Q04DX003 (ip), vehicle: Klucel (hydroxypropylcellulose) (HPC)).
With `Cc1ccc(N=Nc2c(C)nc(N)nc2C)c(C)c1`, the T/C (dose: 75.0 mg/kg/injection, schedule: Q01DX001 (ip), vehicle: other) was 98 % of control; the T/C (dose: 150.0 mg/kg/injection, schedule: Q01DX001 (ip), vehicle: other) is 98 % of control; the T/C (dose: 300.0 mg/kg/injection, schedule: Q01DX001 (ip), vehicle: other) is 98 % of control.
In the case of `Oc1cc(Br)ccc1C=Nc1ccc(N2CCCCC2)cc1`, the T/C was 92 % of control under setting [5]; 100 % of control under setting [12]; 94 % of control under setting [7]; 101 % of control under setting [13]; 89 % of control under setting [14]; 103 % of control under setting [15].
For `Cc1[nH]c(=O)[nH]c(=O)c1N=Nc1ccccc1`, the T/C was 95 % of control (dose: 25.0 mg/kg/injection, schedule: Q01DX001 (ip), vehicle: saline with Tween-80); 98 % of control (dose: 50.0 mg/kg/injection, schedule: Q01DX001 (ip), vehicle: saline with Tween-80); 95 % of control (dose: 100.0 mg/kg/injection, schedule: Q01DX001 (ip), vehicle: saline with Tween-80).
With `C=CCc1ccc(OC(=O)Nc2cccc(OC)c2)c(OC)c1`, the T/C is, setting by setting: under setting [5], 106 % of control; under setting [7], 98 % of control; under setting [14], 88 % of control.
With `O=[As]1(c2cccc3ccccc23)c2ccccc2Cc2ccccc21`, the T/C (dose: 83.0 mg/kg/injection, schedule: Q01DX Z (ip), vehicle: methylcellulose (MC)) was 86 % of control and the T/C (dose: 125.0 mg/kg/injection, schedule: Q01DX Z (ip), vehicle: methylcellulose (MC)) was 86 % of control.
For the molecule `COC(=O)c1ccc(Cn2cnc3ncnc(Cl)c32)cc1`, the T/C under setting [12] is 92 % of control, the T/C under setting [13] is 91 % of control and the T/C under setting [15] was 105 % of control.
Regarding `CCCC#CC(=O)OCCCC`, the T/C by setting is: (dose: 100.0 mg/kg/injection, schedule: Q04DX002 (ip), vehicle: saline with Tween-80) 93 % of control; (dose: 200.0 mg/kg/injection, schedule: Q04DX002 (ip), vehicle: saline with Tween-80) 90 % of control; under setting [11], 90 % of control.
For `O=Cc1ccc[n+](Cc2ccccc2)c1`, the T/C under setting [8] is 98 % of control, the T/C under setting [9] is 102 % of control and the T/C under setting [10] was 102 % of control.
As to `CC(N)c1ccc(OCCOc2ccc(C(C)(C)CC(C)(C)C)cc2)cc1` (configuration not stated), the T/C (dose: 6.25 mg/kg/injection, schedule: Q01DX009 (ip), vehicle: Klucel (hydroxypropylcellulose) (HPC)) was 93 % of control; the T/C (dose: 12.5 mg/kg/injection, schedule: Q01DX009 (ip), vehicle: Klucel (hydroxypropylcellulose) (HPC)) is 94 % of control; the T/C (dose: 25.0 mg/kg/injection, schedule: Q01DX009 (ip), vehicle: Klucel (hydroxypropylcellulose) (HPC)) is 93 % of control; the T/C under setting [12] was 96 % of control; the T/C under setting [13] is 95 % of control.
In the case of `BrC1CCCCN1Cc1cc2ccccc2cc1CN1CCCCC1Br` (configuration not stated), the T/C is 100 % of control (dose: 9.38 mg/kg/injection, schedule: Q01DX001 (ip), vehicle: other) and 102 % of control (dose: 18.75 mg/kg/injection, schedule: Q01DX001 (ip), vehicle: other).
